Some results are limits rather than exact numbers.

In general, IC50 refers to the midpoint of a concentration-inhibition curve. The term Km denotes the concentration of substrate that gives half-maximal velocity.

The target of one test is T1, recombinant human Icmt (Homo sapiens, UniProt O60725).
T1 construct: recombinant baculovirus containing the entire open reading frame of the human Icmt cDNA; made in house; host or cells: Sf9 insect cells (baculovirus); membrane fraction used
T1 sequence (O60725 whole entry): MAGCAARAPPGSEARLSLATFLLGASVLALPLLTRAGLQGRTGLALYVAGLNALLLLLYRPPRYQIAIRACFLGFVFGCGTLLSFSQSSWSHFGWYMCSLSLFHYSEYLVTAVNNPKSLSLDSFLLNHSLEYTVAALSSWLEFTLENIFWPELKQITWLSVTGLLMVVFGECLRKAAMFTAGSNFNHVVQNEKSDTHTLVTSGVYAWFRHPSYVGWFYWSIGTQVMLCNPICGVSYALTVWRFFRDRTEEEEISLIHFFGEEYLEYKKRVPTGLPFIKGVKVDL
The test can be described thus: Icmt assay: [3H]methyl incorporation from [3H]AdoMet into BFC.
Conditions: not given
It is filed as biochemical.
For the molecule `CCOc1cccc(-c2ccc3c(c2)c(CC=O)cn3Cc2cccc(C(F)(F)F)c2)c1` [9F10/A119038], the IC50 turned out to be 6 µM.

The same test, now with this note: Table 1, R1 substituent x scaffold matrix; read-out: IC50.
In the case of `CC(C)Cn1cc(CC(N)=O)c2cc(-c3cccc(F)c3)ccc21` [(a1)/drawing 3], the IC50 came to 13.7 ± 0.3 µM.

The test is the same for the next values; noted with them: Table 2, no pre-incubation; read-out: IC50.
With `CCCCCCCCn1cc(CC=O)c2cc(-c3ccccc3OC)ccc21` [9J16/A119043], the IC50 was determined as 5 µM.
Same read-out and setting: the value for `Cc1cccc(-c2ccc3c(c2)c(CC=O)cn3Cc2ccc3ccccc3c2)c1` [9N22/A119076] was 20 µM; that for `O=CCc1cn(Cc2cccc(C(F)(F)F)c2)c2ccc(-c3ccc(Oc4ccccc4)cc3)cc12` [9D12/A119039] was 7 µM.
On the same count and under the same terms, the value for `CCCCCCCCn1cc(CC=O)c2cc(-c3cc(C(F)(F)F)cc(C(F)(F)F)c3)ccc21` [9L22/A119040] was above 30 µM; that for `O=CCc1cn(Cc2ccccc2)c2ccc(-c3cc(C(F)(F)F)cc(C(F)(F)F)c3)cc12` [9H6/A119000] was 18 µM.
As for `O=CCc1cn(CCCOc2ccccc2)c2ccc(-c3ccc(Oc4ccccc4)cc3)cc12` [9B20/A119055], the IC50 turned out to be 14 µM.
On to `CCCCCCCCn1cc(CC=O)c2cc(-c3cccc(F)c3)ccc21` [9J18/A119045], for which the IC50 worked out at 3 µM.
Same read-out and setting: with `Cc1ccc(-c2ccc3c(c2)c(CC=O)cn3CC2CC2)cc1` [9N8/A119058] the figure was above 30 µM; with `O=CCc1cn(Cc2cccc(C(F)(F)F)c2)c2ccc(-c3ccc(F)c(Cl)c3)cc12` [9H14/A119033], 6 µM.
On the same count and under the same terms, the value for `O=CCc1cn(Cc2ccc3ccccc3c2)c2ccc(-c3ccc(Oc4ccccc4)cc3)cc12` [9N14/A119079] was 20 µM; that for `Cc1ccc(-c2ccc3c(c2)c(CC=O)cn3Cc2cccc(C(F)(F)F)c2)cc1` [9H4/A119034] was 7 µM.
Still for that read-out and setting: with `O=CCc1cn(Cc2ccccc2)c2ccc(-c3ccc(Oc4ccccc4)cc3)cc12` [9B8/A119007] the figure was 7 µM; with `CCCCCCn1cc(CC=O)c2cc(-c3ccc(Oc4ccccc4)cc3)ccc21` [9D20/A110023], 20 µM.
Take `CCCCCCCCn1cc(CC=O)c2cc(-c3ccc(C)cc3)ccc21` [9L6/A119042]: the IC50 was found to be 9 µM.
On the same count and under the same terms, the value for `O=CCc1cn(CC2CC2)c2ccc(-c3ccc(F)c(Cl)c3)cc12` [9J8/A119057] was above 30 µM.
On to `O=CCc1cn(CCCOc2ccccc2)c2ccc(-c3cc(C(F)(F)F)cc(C(F)(F)F)c3)cc12` [9D10/A119048], for which the IC50 is above 30 µM.
The same measure, in the same setting: the value for `CC(C)(C)c1ccc(Cn2cc(CC=O)c3cc(-c4cc(C(F)(F)F)cc(C(F)(F)F)c4)ccc32)cc1` [9B4/A119024] was 4 µM; that for `COc1ccccc1-c1ccc2c(c1)c(CC=O)cn2Cc1ccc2ccccc2c1` [9N12/A119075] was 18 µM; that for `O=CCc1cn(CC2CC2)c2ccc(-c3cc(C(F)(F)F)cc(C(F)(F)F)c3)cc12` [9H12/A119056] was 20 µM.
The same measure, in the same setting: with `CCOc1cccc(-c2ccc3c(c2)c(CC=O)cn3Cc2ccc(C(C)(C)C)cc2)c1` [9B6/A119030] the figure was 3 µM; with `O=CCc1cn(Cc2cccc(C(F)(F)F)c2)c2ccc(-c3cc(C(F)(F)F)cc(C(F)(F)F)c3)cc12` [9L10/A119032], above 30 µM; with `CC(C)(C)c1ccc(Cn2cc(CC=O)c3cc(-c4ccc(F)c(Cl)c4)ccc32)cc1` [9N6/A119025], 5 µM.
Still for that read-out and setting: with `CCCCCCn1cc(CC=O)c2cc(-c3ccc(F)c(Cl)c3)ccc21` [9F18/A119017] the figure was 7 µM; with `CCCCCCn1cc(CC=O)c2cc(-c3cccc(OCC)c3)ccc21` [9H10/A119022], 7 µM.
With `CCCCCCn1cc(CC=O)c2cc(-c3ccc(C)cc3)ccc21` [9L4/A119018], the IC50 came out at 23 µM.
Same read-out and setting: with `O=CCc1cn(Cc2ccccc2)c2ccc(-c3ccc(F)c(Cl)c3)cc12` [9N10/A119001] the figure was 9 µM; with `CCCCCCn1cc(CC=O)c2cc(-c3cccc(C)c3)ccc21` [9J22/A119020], 7 µM.
Same read-out and setting: with `COc1ccccc1-c1ccc2c(c1)c(CC=O)cn2CC1CC1` [9F8/A119059] the figure was above 30 µM; with `CCCCCCCCn1cc(CC=O)c2cc(-c3ccc(F)c(Cl)c3)ccc21` [9L8/A119041], 1 µM.
Same read-out and setting: the value for `CCCCCCCCn1cc(CC=O)c2cc(-c3cccc(OCC)c3)ccc21` [9F20/A119046] was 2 µM; that for `CC(C)(C)c1ccc(Cn2cc(CC=O)c3cc(-c4cccc(F)c4)ccc32)cc1` [9B12/A119029] was 4 µM.
As to `CCCCCCCCn1cc(CC=O)c2cc(-c3ccc(Oc4ccccc4)cc3)ccc21` [9D18/A119047], the IC50 is 5 µM.
Turning to `CC(C)Cn1cc(CC=O)c2cc(-c3cc(C(F)(F)F)cc(C(F)(F)F)c3)ccc21` [9B22/A119064], the IC50 is 8 µM.

The same test, now with this note: Table 2, pre-incubation of enzyme with inhibitor; read-out: IC50 pre-inc.
For the molecule `CCCCCCCCn1cc(CC=O)c2cc(-c3cccc(F)c3)ccc21` [9J18/A119045], the IC50 is below 0.3 µM.

The same test, now with this note: Table 3, pre-incubation with Icmt for 30 min at 37° C.; read-out: IC50 PI (converted).
As to `Cc1cccc(-c2ccc3c(c2)c(CC(N)=O)cn3CC2CC2)c1` [(b1)/drawing 2], the IC50 was 9.5 µM.
Still for that read-out and setting: the value for `Cc1cccc(-c2ccc3c(c2)c(CC(N)=O)cn3Cc2ccccc2)c1` [(e1)/drawing 2] was 2.4 µM.
On the same count and under the same terms, the value for `Cc1cccc(-c2ccc3c(c2)c(CC(N)=O)cn3CC(C)C)c1` [(a1)/drawing 2] was 17.7 µM.
The same measure, in the same setting: the value for `Cc1cccc(-c2ccc3c(c2)c(CC(N)=O)cn3Cc2cccc(C(F)(F)F)c2)c1` [(g1)/drawing 2] was 0.71 µM; that for `CCCCCCn1cc(CC(N)=O)c2cc(-c3cccc(C)c3)ccc21` [(c1)/drawing 2] was 1.7 µM.

The test is the same for the next values; noted with them: standard in vitro methylation assay; read-out: Km as Icmt substrate.
As for “biotin-S-farnesyl-L-cysteine [BFC, reference compound]”, the Km was 2.1 ± 0.4 µM.

Source of the values: patent US7964629B2, “Inhibitors of isoprenylcysteine carboxyl methyltransferase” (Duke Universtiy, priority 2005, dated 2011).
